According to patent publication US9686983B2, “Tobacco axillary bud growth inhibitor and method for inhibiting tobacco axillary bud growth” (SDS BIOTECH K. K., priority 2013, dated 2017):

Legend:
[1] = system: tobacco leaves (first to fourth leaves from the top); test: Harmful effect of the inhibitor on tobacco leaves (growth inhibition, gangrene, change in color, deformation); type: in vivo, Nicotiana tabacum, Tsukuba 1 (flue-cured cultivar)
Description: (§1) Tobacco seedlings of Tsukuba 1 (flue-cured cultivar) were transplanted to 1/5000a Wagner pots filled with Kureha garden nursery soil. The plants were grown in a glasshouse, and the floral axis parts were removed at the time of single-flower bloom of tobacco (top pruning).
(§2) Samples were prepared by diluting the above-mentioned formulation containing 10% of chlorthal-dimethyl with water to predetermined concentrations, and adding thereto the formulation containing 70% of decyl alcohol so as to make each sample have a predetermined concentration, and subjected to the test (Examples 1 to 6). Samples were also prepared by diluting the formulation containing 10% of chlorthal-dimethyl with water to predetermined concentrations, and adding thereto the formulation containing 70% of 2-ethyl hexanol so as to make each sample have a predetermined concentration, and subjected to the test (Examples 7 to 12). Samples were also prepared by diluting the formulation containing 10% of chlorthal-dimethyl with water to predetermined concentrations, and adding thereto the formulation containing 70% of […] so as to make each sample have a predetermined concentration, and subjected to the test (Examples 13 to 18). Furthermore, as Comparative Examples, samples were prepared by diluting samples were also prepared by diluting the formulation containing 10% of chlorthal-dimethyl with water to predetermined concentrations (Comparative Examples 1 to 4), by diluting the formulation containing 70% of decyl alcohol with water to predetermined concentrations (Comparative Examples 5 to 7), and by diluting the formulation containing 70% of […] with water to predetermined concentrations (Comparative Examples 8 to 10), and by diluting the formulation containing 70% of […] with water to predetermined concentrations (Comparative Examples 11 to 13) to be subjected to the test. In addition, butralin (tradename: Blue Ribbon) (Comparative Example 14) was subjected to the test.
(§3) With respect to each of the formulations of the inhibitors for tobacco axillary bud growth, 20 ml of the water-diluted solutions of the respective inhibitors were separately sprayed using a contact-type axillary bud inhibitor spraying instrument equipped with a spot exhaust nozzle. One tobacco plant was planted per pot, and the tests were carried out in duplicate.
Further, the presence or absence of the harmful effect of each inhibitor was evaluated in one of the following four categories depending on the degrees of growth inhibition, gangrene, change in color, deformation and the like of leaves (first to fourth leaves from the top).
Large: A severely harmful effect was observed.
Middle: A clearly harmful effect was observed.
Small: A slightly harmful effect was observed.
Absent: No harmful effect was observed.

[2] = system: tobacco axillary bud growth; test: Tobacco axillary bud growth inhibition test, pot plants after top pruning, contact spray; type: in vivo, Nicotiana tabacum, Tsukuba 1 (flue-cured cultivar); details: single active ingredient, 20 ml sprayed per plant, 28 days after spraying
Description: as §1, §2, §3
For the respective cases, states of inhibition of axillary bud growth 28 days after the spraying were investigated together with untreated groups sprayed with no inhibitor, and axillary bud growth inhibition rates were calculated by the following equation. Axillary bud growth inhibition rate=(fresh weight of axillary buds per plant of untreated group−fresh weight of axillary buds per plant of treated group)÷(fresh weight of axillary buds per plant of untreated group)×100 [Math. 1]
It should be noted that the values in parentheses in Table 1 represent predicted values of the effects of inhibiting axillary bud growth of mixed agents (that is, compounds mixed as active ingredients), that is, expected values of additive effects. The expected values were calculated by the following Colby's equation (Colby. S. R.; “Calculating Synergistic and Antagonistic Responses of Herbicide Combinations” Weed, Vol. 15(1), 20-22, 1967). Colby's equation: E=x+y−x·y/100 [Math. 2]
E: Axillary bud growth inhibition rate in the case of using a mixture of active compound A (concentration a) and active compound B (concentration b) (theoretical axillary bud growth inhibition rate)
x: Axillary bud growth inhibition rate in the case of using active compound A at concentration a
y: Axillary bud growth inhibition rate in the case of using active compound B at concentration b
In the case where a measured value determined in the above-mentioned test (axillary bud growth inhibition rate) was larger than the expected value, a synergetic effect was expressed on activity to suppress axillary bud growth.

**Q.** Which Harmful effect ([1]; in vivo) does the source give for `COC(=O)c1c(Cl)c(Cl)c(C(=O)OC)c(Cl)c1Cl` [Comparative Ex. 1, dimethyl tetrachloroterephthalate] here?
**A.** Its Harmful effect is “None”.

**Q.** What about the “Axillary bud growth inhibition (%)” value ([2]; concentration 0.002 %) of the same compound?
**A.** Its value is 1.1%.

**Q.** `COC(=O)c1c(Cl)c(Cl)c(C(=O)OC)c(Cl)c1Cl` [Comparative Ex. 2, dimethyl tetrachloroterephthalate] was tested. Which Harmful effect ([1]; in vivo) did it give?
**A.** Its Harmful effect is “None”.

**Q.** What about the “Axillary bud growth inhibition (%)” value ([2]; concentration 0.005 %) of the same compound?
**A.** The value was 4.2%.

**Q.** `COC(=O)c1c(Cl)c(Cl)c(C(=O)OC)c(Cl)c1Cl` [Comparative Ex. 3, dimethyl tetrachloroterephthalate] was tested. Which Harmful effect ([1]; in vivo) did it give?
**A.** Its Harmful effect is “None”.

**Q.** And the “Axillary bud growth inhibition (%)” value ([2]; concentration 0.01 %)?
**A.** Its value is 23.4%.

**Q.** How did the Harmful effect ([1]; in vivo) turn out when `COC(=O)c1c(Cl)c(Cl)c(C(=O)OC)c(Cl)c1Cl` [Comparative Ex. 4, dimethyl tetrachloroterephthalate] was run?
**A.** Its Harmful effect is “None”.

**Q.** What about the “Axillary bud growth inhibition (%)” value ([2]; concentration 1 %) of the same compound?
**A.** Its value is 100%.

**Q.** With `CCCCCCCCCCO` [Comparative Ex. 5, Decyl alcohol] as the compound, how does the Harmful effect ([1]; in vivo) read?
**A.** The Harmful effect was “None”.

**Q.** And the “Axillary bud growth inhibition (%)” value ([2]; concentration 0.7 %)?
**A.** The value was 41.4%.

**Q.** Which Harmful effect ([1]; in vivo) does the source give for `CCCCCCCCCCO` [Comparative Ex. 6, Decyl alcohol] here?
**A.** Its Harmful effect is “None”.

**Q.** And the “Axillary bud growth inhibition (%)” value ([2]; concentration 1.4 %)?
**A.** The value was 68.6%.

**Q.** How did the “Axillary bud growth inhibition (%)” value ([2]; concentration 2.6 %) turn out when `CCCCCCCCCCO` [Comparative Ex. 7, Decyl alcohol] was run?
**A.** The value was 86.8%.

**Q.** For `CCCCC(CC)CO` (stereo not drawn) [Comparative Ex. 8, 2-ethyl hexanol], which Harmful effect ([1]; in vivo) is on record?
**A.** Its Harmful effect is “None”.

**Q.** And the “Axillary bud growth inhibition (%)” value ([2]; concentration 0.7 %)?
**A.** The value was 33.1%.

**Q.** With `CCCCC(CC)CO` (stereo not drawn) [Comparative Ex. 9, 2-ethyl hexanol] as the compound, how does the Harmful effect ([1]; in vivo) read?
**A.** Its Harmful effect is “None”.

**Q.** What about the “Axillary bud growth inhibition (%)” value ([2]; concentration 1.4 %) of the same compound?
**A.** The value was 66.6%.

**Q.** For `CCCCC(CC)CO` (stereo not drawn) [Comparative Ex. 10, 2-ethyl hexanol], which “Axillary bud growth inhibition (%)” value ([2]; concentration 2.6 %) is on record?
**A.** The value was 82.1%.

**Q.** What does the source list for `CC(C)=CCC/C(C)=C/CO` [Comparative Ex. 11, Geraniol]?
**A.** Harmful effect ([1]; single active ingredient, concentration 0.7 %, 20 ml sprayed per plant): None; Axillary bud growth inhibition (%) ([2]; concentration 0.7 %): 52.1%

**Q.** Which results are given for `CC(C)=CCC/C(C)=C/CO` [Comparative Ex. 12, Geraniol]?
**A.** Harmful effect ([1]; single active ingredient, concentration 1.4 %, 20 ml sprayed per plant): None; Axillary bud growth inhibition (%) ([2]; concentration 1.4 %): 72.5%

**Q.** How did the Harmful effect ([1]; single active ingredient, concentration 2.6 %, 20 ml sprayed per plant) turn out when `CC(C)=CCC/C(C)=C/CO` [Comparative Ex. 13, Geraniol] was run?
**A.** The Harmful effect was “Medium degree”.

**Q.** What about the Harmful effect ([1]; single active ingredient, concentration 2.6 %, 20 ml sprayed per plant, listed as Comparative Example 13) of the same compound?
**A.** The Harmful effect was “small or medium degree”.

**Q.** And the “Axillary bud growth inhibition (%)” value ([2]; concentration 2.6 %)?
**A.** The value was 87.9%.

**Q.** Which results are given for `CCC(C)Nc1c([N+](=O)[O-])cc(C(C)(C)C)cc1[N+](=O)[O-]` (stereo not drawn) [Comparative Ex. 14, Butralin]?
**A.** Harmful effect ([1]; in vivo): Small degree; Axillary bud growth inhibition (%) ([2]; concentration 0.35 %): 98.2%
